The values that follow come from article PMC6268252, “Synthesis and Antiviral Activity of Conformational Analogues of Leucamide A” (Molecules, 2012).

Where two headings read alike, the source gives them in different places.

One data set in a line: in vitro. The note with it: dog.
Data set [1] deals with Influenza A virus H3N2 (A3 China/15/90). In words: Inhibition of influenza A virus replication (virus-induced CPE) in MDCK cells. It counts as cell-based. The note with it: influenza A H3N2 (A3 China/15/90); for activity against influenza A virus (in words): MDCK cells; for IC50: concentration required to reduce virus-induced CPE in MDCK cells by 50%.
For data set [2] the test system is unchanged. Also noted: method as in PMID 16183283. To be noted: previously reported active compound; read-out: IC50 against influenza A virus; cited from earlier work.
The subject of data set [3] is influenza A virus, herpes simplex type 2 virus (HSV2), hepatitis B virus (HBV). Also noted: method as in PMID 16183283, PMID 18663717. To be noted: reported before; cited from earlier work.
The subject of the next data set is several tumor cell lines. Also noted: method as in PMID 12098321. To be noted: cited from earlier work.

Take `Cc1oc2nc1C(=O)N[C@@H](C)c1nc(co1)C(=O)NCC(=O)N[C@@H](C(C)C)c1nc-2cs1` [Compound 2]: the CC50 in “in vitro” is above 273 µM. For the same compound, the “activity against influenza A virus (in words)” value in data set [1] is “inactive”.

For orientation: IC50 means the midpoint of a concentration-inhibition curve. `Cc1oc2nc1C(=O)N[C@@H](C)c1nc(co1)C(=O)NCCC(=O)N[C@@H](C(C)C)c1nc-2cs1` [Compound 3]: in the data set “in vitro”, the CC50 is above 265 µM. Also, the IC50 in data set [1] came to 163 µM.

On to `Cc1oc2nc1C(=O)N[C@@H](C)c1nc(co1)C(=O)NCCCC(=O)N[C@@H](C(C)C)c1nc-2cs1` [Compound 4], for which, in “in vitro”, the CC50 is 595 µM. Half-maximal inhibition in data set [1] (IC50) was put at 115 µM.

Consider `Cc1oc2nc1C(=O)N[C@@H](C)c1nc(co1)C(=O)NCCCCC(=O)N[C@@H](C(C)C)c1nc-2cs1` [Compound 5], for which the CC50 in the data set “in vitro” was 578 µM. The IC50 in data set [1] was 258 µM.

In the data set “in vitro”, `Cc1oc2nc1C(=O)N[C@@H](C)c1nc(co1)C(=O)NCCCCCC(=O)N[C@@H](C(C)C)c1nc-2cs1` [Compound 6] showed a CC50 of 374 µM. Besides, in data set [1], half-maximal inhibition (IC50) required 41 µM.

For the compound `COc1ccccc1C(=O)N[C@H](c1nc(-c2nc(C(=O)O)c(C)o2)cs1)C(C)C` [Compound 10], the IC50 in data set [2] is 70 µM.

The compound `Cc1oc2nc1C(=O)N[C@@H](C)c1nc(co1)C(=O)N[C@@H](CC(C)C)C(=O)N1CCC[C@H]1C(=O)N[C@@H](C(C)C)c1nc-2cs1` [Leucamide A] displayed a CC50 in “in vitro” of 787 µM. Moreover, the “antiviral activity (in words)” value in data set [3] is “did not show any antiviral activity”. For the same compound, the “cytotoxicity toward tumor cell lines (in words)” value with several tumor cell lines is listed as “moderately cytotoxic”. For the same compound, the “activity against influenza A virus (in words)” value in data set [1] is “inactive”.

On to `NC(=O)c1ncn([C@@H]2O[C@H](CO)[C@@H](O)[C@H]2O)n1` [Ribavirin, reference compound], for which the CC50 in the data set “in vitro” was above 8200 µM. This compound also showed an IC50 in data set [1] of 16 µM.
